According to paper PMC9885526 (ACS Central Science, 2023):

Tested on: SARS-CoV-2 (Omicron variant)
Experiment: microbe, parasite or virus in culture
Format: cell-based
Details: Severe acute respiratory syndrome coronavirus 2, Caco-2

CC(C)(C)[C@H](NC(=O)C(F)(F)F)C(=O)N1C[C@H]2[C@@H]([C@H]1C(=O)N[C@H](C#N)C[C@@H]1CCNC1=O)C2(C)C [PF-07321332, Nirmatrelvir] gave an EC50 of 0.033 µM.
